What was measured:
COLO205 cells [1] = assay: LC-MS lipid profiling of treated cells; format: cell-based, human; details: 1 μM, 4 h
Procedure: ABHD16A^+/+, ABHD16A^+/+, and ABHD16A^−/− littermates of 10 weeks age were anaesthetized by isoflurane and killed by decapitation. The tissues (brains were sliced laterally into two hemispheres; entire spinal cord) were harvested, weighed, and immediately submerged in liquid N2. Tissues (one half brain or entire spinal cord) were then Dounce-homogenized in 8 mL of 2:1:1 (vol/vol/vol) CHCl3: MeOH: PBS containing the internal standard mix (1 nmol 17:1 FFA, and 100 pmol each of 17:1 lyso-PS, 17:0-20:4 PS, 17:1 lyso-PC, 17:0-20:4 PC, 17:0-20:4 PE and 50 pmol of 2-AG-d5). Homogenates were transferred to a glass vial and centrifuged at 2800×g for 10 minutes to separate the two phases. The organic phase (bottom) was removed, 200 μL of formic acid was added to acidify the aqueous homogenate (to enhance extraction of phospholipids), and CHCl3 was added to make up 8 mL volume. The mixture was vortexed, and separated using centrifugation described above. Both the organic extracts were pooled, and dried under a stream of N2. The metabolomes were then re-solubilized in 120 μL of 2:1 (vol/vol) CHCl3: MeOH, and 10 μL were used for the targeted LC-MS analysis. For cellular and secreted metabolomics studies, serum free phenol red free RPMI 1640 media was used to prevent any promiscuous contributions from serum lipids. For the cellular metabolomics studies, 3×10^6 cells were used for all cancer cell lines (COLO205, K562, and MCF7) and lymphoblast cell lines (LCLs), and 2×10^6 cells were used for thioglycollate-elicited peritoneal macrophages. […]
(§1) All the metabolites analyzed in this study were quantified using the multiple reaction monitoring (MRM) methods the targeted LC/MS analysis was done using an Agilent Technologies 6460 Triple Quad LC/M with an Agilent Technologies 1290 Infinity series quaternary pump. All data was collected using the LC/MS Data Acquisition mode of the Mass Hunter Workstation Software version B.05.00 build 5.0.5027.0 SP, and analyzed using the Quantitative Analysis mode of the same software. […]

[2] = system: mouse peritoneal macrophages; assay: Lyso-PS content of thioglycollate-elicited peritoneal macrophages; format: cell-based; details: pre-treatment 1 μM, 4 h; LPS 5 μg/mL, 7 h
Procedure: ABHD16A^+/+, ABHD16A^+/+, and ABHD16A^−/− littermates of 10 weeks age were anaesthetized by isoflurane and killed by decapitation. The tissues (brains were sliced laterally into two hemispheres; entire spinal cord) were harvested, weighed, and immediately submerged in liquid N2. Tissues (one half brain or entire spinal cord) were then Dounce-homogenized in 8 mL of 2:1:1 (vol/vol/vol) CHCl3: MeOH: PBS containing the internal standard mix (1 nmol 17:1 FFA, and 100 pmol each of 17:1 lyso-PS, 17:0-20:4 PS, 17:1 lyso-PC, 17:0-20:4 PC, 17:0-20:4 PE and 50 pmol of 2-AG-d5). Homogenates were transferred to a glass vial and centrifuged at 2800×g for 10 minutes to separate the two phases. The organic phase (bottom) was removed, 200 μL of formic acid was added to acidify the aqueous homogenate (to enhance extraction of phospholipids), and CHCl3 was added to make up 8 mL volume. […]
as §1

COLO205 cells [3] = assay: PS lipase activity of membrane fraction after in situ treatment; details: 1 μM, 4 h
[4] = molecular target: T1, PS lipase activity of human lymphoblast cell lines (LCLs) (Homo sapiens, UniProt O95870); assay: PS lipase activity of LCL membrane proteomes; format: biochemical; details: proteomes pre-treated 1 μM, 30 min, 37° C.
T1 construct: PS lipase activity of membrane proteomes from indicated LCLs; endogenous in cells; host or cells: human lymphoblast cell lines (PHARC subject, relatives, controls), membrane proteome
T1 sequence (O95870 whole entry): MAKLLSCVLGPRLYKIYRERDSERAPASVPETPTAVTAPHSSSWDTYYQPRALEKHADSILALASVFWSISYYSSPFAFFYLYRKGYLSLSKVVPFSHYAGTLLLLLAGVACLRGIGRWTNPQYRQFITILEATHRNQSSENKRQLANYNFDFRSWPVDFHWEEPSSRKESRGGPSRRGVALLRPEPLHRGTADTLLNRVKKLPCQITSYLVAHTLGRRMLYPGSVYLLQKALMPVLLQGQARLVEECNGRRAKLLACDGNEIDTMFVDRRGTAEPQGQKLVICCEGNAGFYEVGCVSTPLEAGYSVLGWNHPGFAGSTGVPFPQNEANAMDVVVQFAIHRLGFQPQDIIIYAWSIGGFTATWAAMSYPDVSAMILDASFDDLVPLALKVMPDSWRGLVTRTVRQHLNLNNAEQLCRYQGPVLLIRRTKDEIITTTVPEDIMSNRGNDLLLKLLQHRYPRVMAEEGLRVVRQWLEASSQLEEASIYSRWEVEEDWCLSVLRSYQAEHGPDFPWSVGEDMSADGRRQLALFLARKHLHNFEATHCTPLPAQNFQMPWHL
Source text: For part (a), Student's t-test: ** p<0.005 for PHARC LCL versus Control 1 or Control 2 LCLs.

mouse ABHD16A = molecular target: T2, mouse ABHD16A (Mus musculus, UniProt Q9Z1Q2); assay: Competitive gel-based ABPP, mouse ABHD16A-transfected HEK293T proteome; format: biochemical; details: 30 min, 37° C., then FP-rhodamine 2 μM
T2 construct: full-length cDNA of human ABHD16A (Open Biosystems Catalog # MHS6278-202758315) or murine ABHD16A (Open Biosystems Catalog # MMM1013-202760516); host or cells: HEK293T, transient, pCMV-SPORT6
T2 sequence (Q9Z1Q2 1-558): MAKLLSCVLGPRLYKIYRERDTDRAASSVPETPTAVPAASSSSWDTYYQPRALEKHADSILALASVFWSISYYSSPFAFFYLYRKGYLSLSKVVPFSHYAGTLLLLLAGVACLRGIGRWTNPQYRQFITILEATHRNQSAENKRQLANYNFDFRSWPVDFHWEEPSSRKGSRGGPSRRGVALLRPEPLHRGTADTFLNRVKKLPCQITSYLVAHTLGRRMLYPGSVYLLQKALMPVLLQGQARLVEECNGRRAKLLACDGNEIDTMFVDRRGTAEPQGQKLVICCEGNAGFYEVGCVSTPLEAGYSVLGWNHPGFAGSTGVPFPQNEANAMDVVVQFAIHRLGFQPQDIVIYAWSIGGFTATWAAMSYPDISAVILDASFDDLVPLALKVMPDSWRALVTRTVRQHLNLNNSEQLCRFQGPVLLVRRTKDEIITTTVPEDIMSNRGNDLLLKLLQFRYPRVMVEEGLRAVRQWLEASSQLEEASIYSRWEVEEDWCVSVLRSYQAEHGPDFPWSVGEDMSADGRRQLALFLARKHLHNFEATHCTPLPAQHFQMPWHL

## CCCCCCCCCCCCCC1OC(=O)/C1=C\CCCCC(N)=O (stereo not shown) [KC01, (Z)-6-(2-oxo-4-tridecyloxetan-3-ylidene)hexanamide]
COLO205 cells [1]
  other lipids (PSs, PCs, PEs, lyso-PCs, lyso-PEs, MAGs): No changes
COLO205 cells [1]; serum-free media
  secreted lyso-PSs (18:1 and 18:0): decreased
COLO205 cells [1]; vs DMSO
  cellular lyso-PSs: significant reductions in all detected cellular lyso-PSs
[2]
  basal and LPS-induced cellular and secreted lyso-PSs: reduced
COLO205 cells [3]
  decrease of PS-lipase activity vs DMSO: > 90%
[4]
  PS lipase activity: substantially reduced
Mouse ABHD16A
  IC50: ~500 nM

Source: patent US20170313669A1, “LACTONE COMPOUNDS AND METHODS OF MAKING AND USING SAME” (THE SCRIPPS RESEARCH INSTITUTE, priority 2015, published 2017)
